Results as given in patent publication US4757064A, “Pharmacologically active bicyclic lactams” (Bayer Aktiengesellschaft, priority 1986, dated 1988).

Experiments:
[1] = animal tests; isolated from Clausena Pentaphylla (Roxb.); cited from earlier work
CCl4 intoxicated mice = test: Hepatoprotective action in CCl4 intoxicated mice (SGPT); assay type: in vivo, Male Kunming strain mice
Method: Male Kunming strain mice weighing 18-22 grams were used throughout the experiments. The compounds to be tested were suspended in 5% Tween 80 and given orally by gavage. The vehicle of 5% Tween 80 solution was administered to control mice via the same route. In in vitro experiments, the compounds were dissolved in dimethylformamide and added directly into the incubation mixture.
Mice were divided into several groups. The control group was administered the vehicle. The other groups were given two doses (250 mg/kg) of compound (I, R=H), at an interval of 8 h, respectively. 10 ml/kg of 0.1% CCl4 in vegetable oil was injected ip 24 h after the second administration of the compound. The mice were fasted for 16 h and sacrificed by decapitation. SGPT and liver lipids were determined. A piece of liver was processed into sections for pathological observation.

[2] = system: retrograde amnesia (rat) under hypoxic conditions; test: Retrograde amnesia under hypoxic conditions (passive avoidance, dark compartment, foot shock); assay type: in vivo, Male rats; conditions: 100 mg/kg p.o.; 3.8% oxygen and 96.2% nitrogen; retest after 24 hours; groups of 15
Description: Influence of the compound (I, R=H) on retrograde amnesia (rat) under hypoxic conditions.
The apparatus (39 cm long, 21 cm high, and 21 cm wide) consists of two compartments, one made of translucent plastic (29 cm long) and the other one painted black (10 cm long). It has a bottom of spaced metal grids which are connected to a stimulating device delivering 1.6 mA for 20 s.
Both compartments are connected via a door which can be closed.
Male rats (100-120 g body weight) will be placed individually in the large compartment and allowed to explore both compartments for 3 min.
Thereafter, the animals are placed in the small (dark) compartment, the connecting door is closed and the foot shock is delivered. After that the animals are put in an air-tight cage which is perfused by a gas mixture containing 3.8% oxygen and 96.2% nitrogen.
24 hours later the rats are placed again in the bright compartment. The observation time is 3 min.
One experiment is performed in three groups of 15 animals each:
Group A: control group, not exposed to hypoxia
Group B: control group, receiving hypoxia after first training
Group C: treated animals, receiving hypoxia after first training
Evaluation: the times the animals need to enter the dark compartment are measured in seconds. […]
The time difference between the control group B and the treated group C is calculated in percent (C-B=X%). […]

Row | Structure (SMILES) | spasmolytic activity (in words) [1] | SGPT, X ± SE (CCl4 intoxicated mice; 250 mg/kg × 2, 8 h interval, oral by gavage, 10 ml/kg of 0.1% CCl4 ip 24 h after second dose, 9 per group, control 2270 ± 284, P <0.01) [unit %] | effect on elevated SGPT (in words) (CCl4 intoxicated mice; mice intoxicated with CCl4) | X, antiamnestic effect (C-B, with A-B=100%) [2] [%]
1 | C=CC(C)(C)c1cc2cc3c(cc2oc1=O)OC1(C)CCC(C(C)(C)O)OC1C3 (stereo not shown) [Clausmarins A] | showed spasmolytic activity |  |  | 
2 | CN1C=Cc2ccccc2C(c2ccccc2)C(O)C1=O (stereo not shown) [Compound (I, R = H)] |  | 617 ± 166 | significantly decreased the elevated SGPT | 34
